The numbers were not newly measured in US12011508B2, “Methods and devices for reducing vascular smooth muscle cell proliferation” (Board of Supervisors of Louisiana State University and …, priority 2018, dated 2024), which cites them from elsewhere.

As for `O=c1c(O)c(-c2ccc(O)c(O)c2)oc2cc(O)cc(O)c12` [QUER, 2-(3,4-dihydroxyphenyl)-3,5,7-trihydroxy-4H-1-benzopyran-4-one], the water solubility result is listed as “practically insoluble in water”.
